Data on two compounds can be found in US6620424B1, “Process for producing glycolytic metabolism regulators” (Suntory Limited, priority 1998, dated 2003).

For data set [1], the target named is T1, rat liver type F6P2kinase (Rattus norvegicus, UniProt P07953).
T1 construct: made in house; host or cells: Escherichia coli
The data set can be described thus: Inhibition by itaconic acid of F6P2kinase activity catalyzing synthesis of F26BP. Format: biochemical. The note with it: 0.5 mM itaconic acid; 0.4 mM F6P, 2 mM ATP, 30° C.; read-out: inhibitory activity on F6P2kinase. As to the method: The gene for rat liver type F6P2kinase was incorporated into Escherichia coli and expressed. From the E. coli cells, rat liver type F6P2kinase was purified (K. Kitamura et al., J. Biol. Chem., Vol. 264, 9799-9806, 1989). The rat liver type F6P2kinase (1.25 μg) was reacted at 30° C. in a reaction solution containing 100 mM Tris-HCl (pH 7.5), 0.1 mM EDTA, 10 mM MgCl2, 2 mM ATP, 0.4 mM F6P, and 0 to 1.5 mM itaconic acid. After lapses of 2, 4 and 6 minutes, 10 μl of the reaction mixture was transferred into a test tube containing 90 μl of 50 mM NaOH, and heated for 1 minute at 90° C. to terminate the reaction. The amount of the resulting F26BP was measured by a change in absorbance due to oxidation of NADH upon subsequent addition of glycolytic pathway enzymes. That is, 10 μl of the reaction mixture after termination of the reaction was added to 1 ml of a reaction solution containing 50 mM HEPES (pH 7.3), 0.2 mM EDTA, 5 mM MgCl2, 1 mM F6P, 1 mM PPi, 15 mU PPi-F6P phosphotransferase, 0.15 mM NADH, 1 U aldolase, 1 U glycerol-3-phosphate dehydrogenase, and 10 U triose-phosphate isomerase. The amount of F26BP was measured by a decrease in the absorbance at 340 nm (Van Schaftingen et al., Eur. J. Biochem., Vol. 129, 191-195, 1982). The activity that converts the substrate F6P to 1 μmole F26BP over 1 minute at 30° C. is defined as 1 U. The results are shown in FIG. 1.

The test system of data set [2] is Male SD rats. The data set can be described thus: Evaluation of preventive effect on obesity in rats (3 weeks, itaconic acid in drinking water). Format: in vivo, rat. As to the method:
Male SD rats (8-week-old) were individually reared, commencing immediately after arrival. After a week of acclimatization, the animals were divided into a control group and an itaconic acid group (8 animals per group), and reared for 3 weeks, with feed and drinking water of the itaconic acid concentration shown in [Table 1] being given ad lib.
During the 3-week rearing period, the body weight, the feed intake, and the water intake were measured daily or every other day. On the final day, the animal was placed on a 17-hour fast, the blood was sampled, and the plasma was analyzed for blood glucose, hepatic function, and lipid-related parameters. Furthermore, the weight of the livers, kidneys, fat around the kidneys, and fat around the intestines was measured. The experiments were conducted in groups of 8 rats each, and the results were indicated as mean values±standard deviations. The test for a significant difference was performed by the analysis of variance of data, followed by Student t-test. The level of significance was set at 0.05.
The plasma collected at completion of the experiments was measured for various biological parameters. […] The experiments were conducted in groups of 8 rats each, and the results were indicated as mean values±standard deviations. The test for a significant difference was performed by the analysis of variance of data, followed by Student t-test. The level of significance was set at 0.05.

Data set [3] has as its system Male SD rats. Nature of the data set: Evaluation of the suppressive effect on blood glucose elevation in rats (glucose challenge). Format: in vivo, rat. The protocol:
Male SD rats (weighing 300 to 400 g), operated on for blood sampling cannulation into the femoral artery, were used. After an overnight fast, itaconic acid (500 mg/kg) was orally administered. Thirty minutes later, glucose (4 g/kg) was ingested, and changes in blood glucose were observed. In the control group, purified water, free of itaconic acid, was orally administered in the same volume. Experiments were conducted in groups of 4 rats each, and the results were indicated as mean values±standard deviations. The test for a significant difference was performed by the analysis of variance of data, followed by Student t-test. Differences were taken as significant when p values were less than 0.05 (*p<0.05, **p<0.01).

Data set [4] deals with streptozotocin-induced diabetes rats (male Wistar rats). Nature of the data set: Evaluation of suppressive effect on blood glucose elevation in streptozotocin-induced diabetes rats. Format: in vivo, rat. From the text:
Streptozotocin is an antibiotic derived from Streptomyces achromogenes, one of […]. Its action of inducing insulin-dependent diabetes mellitus was reported for the first time in 1963 by Rakieten et al. (Rakieten N, Rakieten M L, Nadkarni M V, Cancer Chemother Rep 29:91-98, 1963). Since then, it has been used most commonly as a substance for inducing diabetes experimentally. The main mechanism of its diabetogenic action is ascribed to the destruction of P cells of the pancreas, thereby suppressing insulin secretion. In male Wistar rats (7-week-old), a solution of streptozotocin in 0.05 M citric acid-0.145 […] NaCl (pH 4.5) was administered into the caudal vein (50 mg/kg). The animals were individually reared, commencing immediately after administration of streptozotocin. After a lapse of 48 hours, the animals with blood glucose levels of 300 mg/dl or more were divided into a control group and an itaconic acid group (7 or 8 animals per group), and study was initiated. A rearing feed was given to the control group, and a rearing feed containing 1.38% of itaconic acid was given to the itaconic acid group, ad. lib. together with drinking water, and the animals were reared for 3 weeks.
During the 3-week rearing period, blood glucose, body weight, feed intake, and water intake were measured twice or 3 times weekly. Rats are nocturnal animals, and feeding mostly takes place at night. However, since their blood glucose fluctuates greatly depending on the elapsed time after eating, each measurement of blood glucose was made between 9:30 and 10:00 in the morning. Blood hemoglobin Alc was measured on the day after administration of streptozotocin and on the 19th day after start of the study. Hemoglobin Alc is hemoglobin having glucose attached thereto non-enzymatically, and is expressed as a percentage (%) of total hemoglobin. In humans, hemoglobin Alc is known to serve as an indicator of the mean value of blood glucose during the period from 1 to 3 months previously until blood sampling. In rats, the life of an erythrocyte is about half of that in humans, and hemoglobin Alc has been reported to reflect the mean value of blood glucose since 2 to 3 weeks previously.
The experiments were conducted in groups of 7 or 8 rats each, and the results were indicated as mean values±standard deviations. The blood glucose was expressed as changes in individual animals compared with the value found at the start of the study (grouping). The test for a significant difference was performed by the analysis of variance of data, followed by Student t-test. The level of significance was set at 0.05.

The conditions of data set [5]: animal studies and clinical trials; cited from earlier work.
Where [6] appears, read: at completion of 3 weeks, FIG. 5.
The mark [7] stands for this setting: at completion of 3 weeks, p<0.05, FIG. 5.
Where [8] appears, read: plasma after 3 weeks, 17-hour fast, mean ± SD, n=8.
[9] abbreviates: plasma after 3 weeks, 17-hour fast, mean ± SD, n=8, P < 0.05 vs control.

T1 sequence (P07953 whole entry): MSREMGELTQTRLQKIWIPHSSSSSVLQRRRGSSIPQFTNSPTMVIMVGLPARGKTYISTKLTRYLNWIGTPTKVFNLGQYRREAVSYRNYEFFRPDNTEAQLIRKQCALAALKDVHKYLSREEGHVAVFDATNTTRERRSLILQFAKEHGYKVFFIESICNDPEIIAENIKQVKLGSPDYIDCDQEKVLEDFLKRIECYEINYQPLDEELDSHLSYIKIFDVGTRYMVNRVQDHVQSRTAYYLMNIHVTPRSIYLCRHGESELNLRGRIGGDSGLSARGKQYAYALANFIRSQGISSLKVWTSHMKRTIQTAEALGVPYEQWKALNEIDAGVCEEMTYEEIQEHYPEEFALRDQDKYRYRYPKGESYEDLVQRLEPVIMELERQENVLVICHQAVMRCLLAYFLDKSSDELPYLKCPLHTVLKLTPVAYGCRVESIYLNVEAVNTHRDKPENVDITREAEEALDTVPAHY

For `C=C(CC(=O)O)C(=O)O` [itaconic acid], the inhibition at 500 µM in data set [1] is about 30%. In addition, the feed intake entry in data set [2] (3-week period, compared with the control group, FIG. 3) is “decreases in the feed intake were observed”. In addition, in data set [2] (setting [6]), the “weight of the kidneys per 100 g of body weight” value was “not different between the groups” and the “weight of the livers per 100 g of body weight” value is recorded as “not different between the groups”. In data set [2] (setting [7]), the “weight of fat around the intestines per 100 g of body weight” value was “significantly decreased” and the “weight of fat around the kidneys per 100 g of body weight” value was “significantly decreased”. For the same compound, in data set [2] (from Day 9 onwards, p<0.05 against the control group, FIG. 2), the weight gain entry is given as “significant suppression of weight gain”. In data set [2] (setting [8]), the ALP is reported as 0.3 ± 0.1 IU/l, the Free cholesterol was determined as 12.2 ± 2.0 mg/dL, the GOT is listed as 65.0 ± 12.0 IU/l and the GPT is 13.0 ± 2.5 IU/l. In data set [2] (setting [8]), this compound gave an LDH of 276 ± 82 IU/l, a Total bilirubin of 0.19 ± 0.02 mg/dL and a Total cholesterol of 46.3 ± 7.1 mg/dL. The Triglycerides in data set [2] (plasma after 3 weeks, 17-hour fast, mean ± SD, n=8, P < 0.01 vs control) is 20.9 ± 2.8 mg/dL. In data set [2] (setting [9]), the Blood glucose turned out to be 149 ± 19 mg/dL and the Free fatty acids is 199 ± 75 mg/dL. The “initial rapid increase in blood glucose after glucose challenge” value in data set [3] (itaconic acid 500 mg/kg orally 30 min before glucose 4 g/kg, 30 minutes after challenge, FIG. 6) is listed as “significantly curbed”. Besides, the “blood glucose late after glucose challenge” value in data set [3] (itaconic acid 500 mg/kg orally, after 180 minutes and 240 minutes, versus control group) is listed as “significantly high”. Further, the “rise in blood hemoglobin Alc” value in data set [4] (Day 19, compared with the control group, FIG. 11) is “significant curbing of the rise”. Further, in data set [4] (feed containing 1.38% itaconic acid, 3 weeks, FIG. 8), the body weight entry is “not different between the groups”. Moreover, the “rise in blood glucose (change from start of study)” value in data set [4] (feed containing 1.38% itaconic acid, 3 weeks, from Day 1 onwards, p<0.05 on Days 5 and 15, FIG. 7) is given as “suppression of the rise in blood glucose was observed”. The feed intake entry in data set [4] (from about Day 5 onwards, compared with the control group, FIG. 9) is reported as “decreases in feed intake were observed”.
Regarding `OCC(CO)N[C@H]1C[C@](O)(CO)[C@@H](O)[C@H](O)[C@H]1O` [voglibose], the “rapid increases (peaks) in postprandial blood glucose” value in data set [5] is on record as “suppressing rapid increases (peaks) in postprandial blood glucose”.
